This is an account of results in article PMC7038139, “Novel Peptide CM 7 Targeted c-Met with Antitumor Activity” (Molecules, 2020).

For series [1], the system named is MKN-45 cells. The series can be described thus: Cell proliferation assay, MKN-45. Type of series: cell-based, Human. Particulars: CM 7, various concentrations; 4 days; serum-free medium; cell count; means of six determinations. Here is the method: (§1) Human gastric cancer cell line MKN-45 cells were from the Chinese Academy of Medical Sciences, Beijing, China. Human gastric cancer cell line MKN-28 cells, the human glioma cell line U87 cells, and MDCK cells were obtained from the American Type Culture Collection (ATCC). The MKN-45 and MKN-28 cells were grown under a humidified atmosphere of 5% CO2 at 37 °C in RPMI 1640 medium (Biological Industries, Israel), supplemented with 10% fetal bovine serum (FBS, Biological Industries, Israel), 2 mmol/L L-glutamine (Gibco, Life Technologies, Grand Island, NY, USA), 100 U/mL penicillin, and 100 μg/mL streptomycin (Invitrogen, Carlsbad, CA, USA). MDCK and U87 cells were cultured under a humidified atmosphere of 5% CO2 at 37 °C in Dulbecco’s modified Eagle’s medium (DMEM) (Gibco, Life Technologies, Grand Island, NY, USA), supplemented with 10% FBS, 2 mmol/L L-glutamine (Gibco, Life Technologies, Grand Island, NY, USA), 100 U/mL penicillin, and 100 μg/mL streptomycin (Invitrogen, Carlsbad, CA, USA).
(§2) As described in the literature, MKN-45, MKN-28, and U87 cells were seeded into 48-well culture plates (6500 cells/well) and cultured overnight. […] After 4 days, the cells were trypsinized and counted by a cell counter. […]

The subject of the next series is U87 cells. The series can be described thus: Cell proliferation assay, U87 (HGF-stimulated). Particulars: CM 7, various concentrations; 20 ng/mL HGF; 4 days; serum-free medium; cell count; means of six determinations. The format is cell-based, human. As for the experimental part:
as §1, §2

For series [2], the system named is MKN-45 cells. Put plainly: Cell cycle distribution assay. Particulars: 48 h; compared with the control group; n = 3. Type of series: cell-based, Human. As for the experimental part:
According to the cell cycle detection kit (Keygen) instructions, MKN-45 cells were collected and seeded in a six-well culture plate at the concentration 2 × 10^6/mL overnight. Then, the cells were washed with PBS and treated with peptide CM 7 at the indicated concentration for 48 h. The experiment was performed in triplicate. A MACS Quant flow cytometer (Miltenyi Biotec GmbH, Bergisch Gladbach, Germany) was used to detect the cell cycle profile, and FlowJo software version 7.6 (FlowJo LLC, Ashland, USA) was used to analyze the data.

The next series has as its system MDCK cells. Put plainly: Cell scatter assay (HGF-induced). Particulars: HGF 100 ng/mL, 24 h, 37 °C. Type of series: cell-based, canine. As for the experimental part:
MDCK cells were detached from the tissue culture plate and seeded in 96-well plates at the final concentration of 1.5 × 10^3 cells/well overnight. Different concentrations of CM 7 without or with HGF (100 ng/mL) were added to the preset wells. After incubating for 24 h at 37 °C and 5% CO2, 4% paraformaldehyde was used to fix the cells, which were then stained with 0.2% crystal violet. The plates were washed with clean water. When dried, an Olympus IX53 microscope was used to capture the images.

Series [3] concerns c-Met and its downstream signaling molecules in MKN-45 cells. Put plainly: Western blot of c-Met signaling, MKN-45. Particulars: 24 h. The format is cell-based, Human. As for the experimental part:
(§3) Western blot analysis was performed using an extraction buffer as described. MKN-45, MKN-28 and U87 cells were cultured in serum-free medium overnight, then treated with the indicated dose of peptide CM 7 for 24 h at 37 °C after stimulated without or with HGF for 15 min. Next, total cell lysates were separated by 12% SDS-polyacrylamide gel (SDS-PAGE) and transferred to polyvinylidene difluoride (PVDF) membranes. The PVDF membranes were probed with following primary antibodies: anti-phospho-Met (Tyr1234/1235, (Cell Signaling Technology, Beverly, MA, USA), anti-Met (Affinity, USA), anti-phospho-AKT (Ser473, (Affinity, USA)), anti-AKT (Affinity, USA), anti-phospho-Erk1/2 (Thr202/Tyr204, (Affinity, USA)), anti-Erk1/2 (Affinity, USA), anti-E-cadherin (WanleiBio, Shengyang, China), and anti-GAPDH (Multi Sciences, Hangzhou, China). Then, horseradish-peroxidase-conjugated anti-rabbit IgG was used as a second antibody. The immunoreactive proteins were exposed using an enhanced chemiluminescence detection reagent (WanleiBio, Shengyang, China). After sacrificing the mice and isolating the tumor tissue, Western blot was performed as previously described.

For series [4], the system named is c-Met and its downstream signaling molecules in MKN-45 xenografts. Put plainly: Western blot of c-Met signaling in xenograft tumors. Type of series: in vivo, Human. The note with it: n = 3. As for the experimental part:
as §3

Series [5] can be described thus: Body weight / tolerability in tumor-bearing mice. Type of series: in vivo, Balb/c nude mice. The note with it: each peptide group (5, 10, 20 mg/kg s.c. twice a day, 28 days). Here is the method:
Four-to-five-week-old female Balb/c nude mice, housed in specific pathogen-free conditions, were used to evaluate antitumor activity in vivo. All animal studies were performed according to the institutional ethical guidelines for animal care.
MKN-45 cells at a density of 5 × 10^6 in 200 μL were injected subcutaneously into the flank of the mice. CM 7 (5, 10, or 20 mg/kg) was injected subcutaneously for each group twice a day for four weeks. As a positive control, Crizotinib (50 mg/kg) was given to tumor-bearing mice by gavage once a day for a total of 28 days. The tumor volume was measured with calipers in two dimensions: tumor volume = 1/2 × a × b^2, where a is the length of the tumor, and b is the width of the tumor. All of the mice were sacrificed on day 42, and the tumor tissue was isolated and weighed.
Figure S1: The chemical structure, molecular mass, and purity of peptide FITC-CM 7. […] (C) The purity of peptide FITC-CM 7 was determined by high-performance liquid chromatography (HPLC) to be 97.3%. […] (C) The purity of peptide FITC-CM 7 was determined by HPLC to be 96.7%. Figure S3: The mean body weight of tumor-bearing mice treated daily for four weeks with vehicle (0.2% DMSO) or Crizotinib (50 mg/kg) by gavage, and the tested peptide CM 7 or vehicle (PBS) that was subcutaneously injected twice a day for four weeks was measured every other day during the study. […]

Entries after “also recorded” stand apart in the source; their conditions may differ.

Regarding “DQIIANN [CM 7, Novel peptide DQIIANN targeting the tyrosine kinase receptor c-Met]”, in the series on MKN-45 cells [1], the “Inhibition of cell proliferation” value was “moderate regulation; also recorded: inhibit the proliferation of MKN-45 or U87 cells to a certain extent with considerable dose dependence”. For the same substance, in the series on U87 cells, the “Inhibition of cell proliferation” value is “inhibit the proliferation of MKN-45 or U87 cells to a certain extent with considerable dose dependence”. Further, the Cell cycle arrest result with MKN-45 cells [2] is “significantly arrested in the S phase”. The “Inhibition of growth of cell pseudopodia” value in the series with MDCK cells (1 μM) is “completely inhibited”. The “Inhibition of HGF-induced cell scattering” value in the series on MDCK cells (dose-dependent) is listed as “moderate regulation; also recorded: remarkably inhibit the HGF-induced cell scattering of MDCK cells in a dose-dependent manner”. For the same substance, in series [3], the “Expression of E-cadherin” value was “increase the expression of E-cadherin”. The “Phosphorylation of c-Met, Akt and Erk” value in series [3] (dose-dependent) is given as “effectively inhibit”. In addition, in series [4], the “Intratumoral expression of E-cadherin” value is on record as “significantly increased” and the “Intratumoral phosphorylation of c-Met, Akt or Erk” value is recorded as “markedly inhibited”. Moreover, the “Weight loss of mice” value in series [5] was “no significant weight loss”. The Tolerability / toxicity entry in series [5] (from body weight) is “well tolerated and slightly or nontoxic”.
